We go through 19 molecules from PubChem BioAssay (NCI).

Holding throughout (test): NCI tumour cell line growth inhibition, 48 h
Experiment [1] concerns UO-31 renal.
Experiment [2] has as its system HOP-92 NSCLC.
Experiment [3] relates to 786-0 renal.
Experiment [4] relates to HT29 colon.
The test system of experiment [5] is HOP-62 NSCLC.
Experiment [6] has as its system OVCAR-5 ovarian.
For experiment [7], the system named is MDA-MB-231 breast.
Experiment [8] deals with BT-549 breast.
Experiment [9] has as its system DU-145 prostate.

Structures are written as SMILES.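 The compound was tested at five concentrations on cells cultured in 96-well plates, with a 48-hour exposure period. Here, GI50 denotes the concentration required for 50% inhibition of growth. TGI is the concentration that stops growth completely.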

Take `CC1(C)C2CCC13CS(=O)(=O)N1O[C@]13C(=O)O2` (stereo partly drawn): the TGI in experiment [1], in experiment [2], in experiment [3], in experiment [4], in [5] and in [6] was greater than 100 µM each time.
For `CN(C)CCC(/C=C/c1ccccc1)=N\Nc1ccc(Cl)cc1Cl`, the TGI came to 6.5 µM in experiment [1]; 26.1 µM in experiment [3]; 27.2 µM in [4]; 27.9 µM in [5]; 28.8 µM in experiment [6].
In the case of `O=C(O)/C(Cl)=C(\Cl)C(=O)Nc1ccc(Cl)c(Cl)c1Cl`, the TGI in [1] was 30 µM; in experiment [2], 31.1 µM; in [3], 32.1 µM; in experiment [4], 39.9 µM; in experiment [5] it was 62.3 µM; in experiment [6] it was 32.1 µM.
As to `Cc1cc(N(CCC#N)CCC#N)ccc1/C=C1/N=C(c2ccccc2)N(N)C1=O`, the TGI in experiment [1] is greater than 100 µM; in experiment [2] it was 99.9 µM; in experiment [3] it was greater than 100 µM; in experiment [4], greater than 100 µM; in experiment [5] it was greater than 100 µM; in experiment [6] it was greater than 100 µM.
Regarding `Cn1c2ccccc2n2c(=O)c3c(c(C#N)c12)CCCC3`, the TGI in experiment [1], in experiment [3], in [4], in [5] and in [6] was greater than 100 µM each time.
Regarding `Cc1cc2c(c(C(=O)O)c1C)-c1cccc(F)c1C2=O`, the TGI in experiment [1] was 66.1 µM; in experiment [3] it was greater than 100 µM; in [4], greater than 100 µM; in [5] it was greater than 100 µM; in experiment [6] it was greater than 100 µM.
Take `O=P1(Oc2ccccc2)C(c2ccccc2)C(c2ccccc2)=NN1c1ccccc1` (stereo not drawn): the TGI is greater than 100 µM in experiment [3], 33 µM in [4], 71.3 µM in experiment [5] and 50.2 µM in experiment [6].
With `CC1(C)OCC(C(O)C2OC(C)(C)OC2/C=N\O)O1` (stereo not drawn), the TGI in [1], in experiment [2], in experiment [3], in experiment [4], in experiment [5] and in experiment [6] was greater than 100 µM throughout.
Turning to `CN1COc2c(n(C)c(=O)[nH]c2=O)C1`, the TGI in experiment [1], in experiment [2], in experiment [3], in [4], in experiment [5] and in experiment [6] was greater than 100 µM throughout.
For the molecule `COC(CN1C=C(Sc2ccccc2)CC1)OC`, the TGI in experiment [1] is greater than 100 µM; in [2], 86.5 µM; in experiment [3], greater than 100 µM; in [4], 54.2 µM; in [5] it was greater than 100 µM; in experiment [6], greater than 100 µM.
As to `C/C=C(\C)c1cc(O)c(C)c2c1Oc1cc(O)c(Cl)c(C)c1C(=O)O2`, the TGI in [1] turned out to be 27.2 µM; in experiment [3], 49.2 µM; in [4] it was 34.7 µM; in [5], 51.1 µM; in experiment [6], 30.2 µM.
Consider `COc1ccc(/C=N/NC(=O)Cn2c(-c3ccc(S(C)(=O)=O)cc3)nc3cc(Cl)ccc32)cc1`, for which the GI50 was 3.45 µM in experiment [1]; 1520 nM in experiment [2]; 1660 nM in experiment [3]; 689 nM in experiment [4]; 1420 nM in experiment [5]; 3.54 µM in [6]. The figures for the GI50 in experiment [7], in experiment [8] and in experiment [9] were 2480 nM, 2740 nM and 1950 nM, respectively. For the same molecule, the TGI in experiment [1] was greater than 50 µM; in experiment [2] it was greater than 50 µM; in experiment [3], greater than 50 µM; in [4] it was 7.19 µM; in experiment [5], greater than 50 µM; in [6], greater than 50 µM. The results for the TGI in experiment [7], in experiment [8] and in experiment [9] were greater than 50 µM, 48.5 µM and greater than 50 µM, respectively.
Consider `COC(=O)C(C)(C)N=CN(C)C`, for which the TGI in experiment [1], in experiment [2], in experiment [3], in [4], in experiment [5] and in [6] was greater than 100 µM throughout.
In the case of `CCOC1=C2N=C(Cc3ccccc3F)N=C2C(=O)c2ccccc21`, the TGI in [1], in experiment [2], in experiment [3], in experiment [4] and in experiment [5] was greater than 100 µM each time.
As for `C=C1CCC2[C@@H](CCC3[C@]2(C)CCC[C@]3(C)C(=O)OC)[C@@H]1CC=O` (stereo partly drawn), the GI50 in [1] is 31.3 µM; in experiment [5], greater than 100000 nM; in experiment [6] it was 50.8 µM. For the same molecule, the TGI in experiment [1] was greater than 100 µM; in [2], 48.9 µM; in experiment [3], greater than 100 µM; in experiment [4] it was 81 µM; in experiment [5], greater than 100 µM; in [6], greater than 100 µM.
`O=C(NC1CCCC1=O)c1ccccc1` (stereo not drawn): the TGI in experiment [1], in [2], in experiment [3], in experiment [4], in experiment [5] and in experiment [6] was greater than 100 µM in each case.
On to `CC(C)c1c2[nH]c3ccccc3c2c(C(C)C)c2[nH]c3ccccc3c12`, for which the TGI in experiment [1], in experiment [2], in experiment [3], in experiment [4], in experiment [5] and in experiment [6] was greater than 100 µM in each case.
As for `CCC1(O)C(=O)OCc2c1cc1n(c2=O)Cc2cc3cc(N)ccc3nc2-1` (stereo not drawn), the TGI is 0.0864 µM in [1]; 0.0469 µM in [3]; 0.357 µM in [5]; 2.94 µM in [6]; greater than 64.8 µM in experiment [7]; 0.0931 µM in [8]. The molecule further returned a TGI in experiment [9] of less than 0.01 µM.
Regarding `CNS(=O)(=O)NNS(=O)(=O)c1ccc(Cl)cc1`, the TGI in [1], in experiment [2], in experiment [3], in [4], in experiment [5] and in experiment [6] was greater than 100 µM each time.
